Counter-ions that a name gives are not always drawn.
Legend:
human placental CYP19 = molecular target: T1, human placental CYP19 (Homo sapiens, UniProt P11511); test: IC50 of CYP19 (human placental microsomes); format: biochemical; conditions: human placental CYP19; testosterone substrate 2.5 μM
T1 construct: The enzyme was obtained from the microsome fraction of fresh human placenta; from tissue; host or cells: human placenta, microsomal fraction
T1 sequence (P11511 1-503): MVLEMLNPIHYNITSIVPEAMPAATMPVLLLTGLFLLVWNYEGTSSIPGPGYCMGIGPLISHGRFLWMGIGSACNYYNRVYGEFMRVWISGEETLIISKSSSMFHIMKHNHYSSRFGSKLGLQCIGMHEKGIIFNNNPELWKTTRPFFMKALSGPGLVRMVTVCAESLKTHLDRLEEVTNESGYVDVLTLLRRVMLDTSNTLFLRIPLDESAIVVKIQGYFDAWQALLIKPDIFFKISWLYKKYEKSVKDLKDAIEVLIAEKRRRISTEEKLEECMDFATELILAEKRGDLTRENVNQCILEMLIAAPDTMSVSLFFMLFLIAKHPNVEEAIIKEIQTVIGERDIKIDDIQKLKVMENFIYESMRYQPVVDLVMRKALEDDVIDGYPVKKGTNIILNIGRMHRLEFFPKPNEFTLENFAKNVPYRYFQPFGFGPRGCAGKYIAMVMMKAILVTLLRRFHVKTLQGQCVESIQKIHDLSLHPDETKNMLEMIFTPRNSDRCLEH
Experimental: The isolated microsomes were suspended in a minimum volume of phosphate buffer (0.05 M; pH 7.4; […]). In addition, DTT (10 mM) and EDTA (1 mM) were added to protect the enzyme from degradation reactions.
[…] […] The compounds to be tested were dissolved in DMSO and diluted with buffer to the desired concentration. The final DMSO concentration of the control and inhibitor incubations was about 20%. Each vessel was preincubated in a water bath at 30° C. for 5 min. The reaction was started by adding the microsomal protein (0.1 mg). The total volume of each mixture was 200 μl. After 14 min, the reaction was quenched by adding 200 μl of ice cold 1 mM HgCl2 solution. Two hundred microliters of a 2% aqueous suspension of dextran-coated charcoal, DCC) was added for absorbing the steroids, and the vessels were shaken for 20 min. Thereafter, the charcoal was centrifuged off at 1500 g for 5 min. The radioactive water present in the supernatant (^3H2O) was assayed by scintillation measurement using an LKB-Wallac beta counter. The calculation of the IC50 values was effected by a semilogarithmic plot of the percent inhibition against the inhibitor concentration.

bovine adrenal CYP11B = molecular target: T2, bovine adrenal CYP11B (Bos taurus, UniProt P15150); test: Percent inhibition of bovine CYP11B (adrenal mitochondria); conditions: read-out: % Inhibition bovine bCYP11B, bovine adrenal mitochondria, 1 mg/ml protein; corticosterone substrate 200 μM; inhibitor 1 μM
T2 sequence (P15150 25-503): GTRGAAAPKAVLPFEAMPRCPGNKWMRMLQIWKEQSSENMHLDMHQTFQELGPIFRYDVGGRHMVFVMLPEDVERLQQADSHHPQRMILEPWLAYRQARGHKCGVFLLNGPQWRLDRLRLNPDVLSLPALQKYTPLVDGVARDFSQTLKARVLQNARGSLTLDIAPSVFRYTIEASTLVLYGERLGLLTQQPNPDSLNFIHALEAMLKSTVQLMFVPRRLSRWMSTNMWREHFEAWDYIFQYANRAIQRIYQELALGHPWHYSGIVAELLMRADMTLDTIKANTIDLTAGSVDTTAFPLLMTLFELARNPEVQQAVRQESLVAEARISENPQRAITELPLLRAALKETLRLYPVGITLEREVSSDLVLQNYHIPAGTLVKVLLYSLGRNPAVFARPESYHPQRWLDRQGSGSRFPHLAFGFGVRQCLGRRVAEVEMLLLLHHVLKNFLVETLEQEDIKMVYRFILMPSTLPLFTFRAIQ

CYP11B1 in NCI-H295R = molecular target: T3, CYP11B1 in NCI-H295R (Homo sapiens, UniProt P15538); test: cell-based; conditions: read-out: NCI-H295R CYP11B1 RSS % inhibition
T3 sequence (P15538 25-503): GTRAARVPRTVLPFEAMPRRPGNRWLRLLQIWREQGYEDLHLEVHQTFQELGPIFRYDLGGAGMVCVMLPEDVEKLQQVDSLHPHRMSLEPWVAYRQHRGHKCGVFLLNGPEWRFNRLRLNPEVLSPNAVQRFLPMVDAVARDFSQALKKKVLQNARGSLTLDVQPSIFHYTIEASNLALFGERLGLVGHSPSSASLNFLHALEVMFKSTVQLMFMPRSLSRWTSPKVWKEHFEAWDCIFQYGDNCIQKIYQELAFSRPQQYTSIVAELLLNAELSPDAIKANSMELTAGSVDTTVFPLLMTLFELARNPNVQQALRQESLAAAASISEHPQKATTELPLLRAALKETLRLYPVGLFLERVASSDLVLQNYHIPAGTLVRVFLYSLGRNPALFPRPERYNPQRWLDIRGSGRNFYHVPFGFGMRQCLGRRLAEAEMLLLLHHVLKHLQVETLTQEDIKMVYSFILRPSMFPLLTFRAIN
Experimental: For testing inhibitors, a preincubation for one hour was performed first, followed by starting the enzyme reactions by adding substrate (500 nM).
A) Seeding: The cell lines were grown and passaged until a confluent cell lawn had formed. By tryptic treatment, the cell material of at least two culture dishes was obtained, and the number of cells determined by means of a CASY TT cell counter (150 μl capillary). […] With the cell material of two confluently grown culture dishes, two 24-well plates could be coated. After 24 hours, the cells had grown on, and after another 24 hours' stimulation phase with a solution containing potassium ions (final concentration: 20 mM KCl), could be employed for the test.
Of this solution, 5 μl each was added to the samples.
Then, the 24-well plate was stored in a CO2 incubator at 37° C. and […]. The incubation time was 3 hours when deoxycorticosterone was used as the substrate, 24 Hours for corticosterone, and 48 hours for deoxycortisol.
Test stop: After elapse of the incubation times, the plates were briefly swung, and then the content of the wells was removed quantitatively if possible and inactivated by mixing with 1000 μl of dichloromethane in a 2 ml Eppendorf vessel. After 10 minutes of shaking, it was centrifuged for phase separation, and the […], organic phase was transferred into a 1.5 ml Eppendorf vessel. […]

SMILES | IC50 (human placental CYP19) | melting point | inhibition at 1 µM (bovine adrenal CYP11B) | inhibition at 2.5 µM (CYP11B1 in NCI-H295R)
Cl.Clc1ccc2c(c1)CC/C2=C\c1cnc[nH]1 [Compound 48a, 5-[(E)-(5-Chloro-2,3-dihydro-1H-indene-1-ylidene)methyl]-1H-imidazolium chloride] | 330 nM | 238 °C | 45% | 
Fc1ccc2c(c1)CC/C2=C/c1cccnc1 [Compound 5b, 3-[(Z)-(5-Fluoro-2,3-dihydro-1H-indane-1-ylidene)methyl]pyridine Hydrochloride] | 2490 nM |  |  | 73.1%

Reference: patent publication US20090105278A1, “Selective inhibitors of human corticosteroid syntheses” (Universitat Des Saarlandes, priority 2004, published 2009)
